# According to patent publication US7928098B2, “Therapeutic and/or preventive agents for a sleep disorder” (Kyowa Hakko Kirin Co., Ltd., priority 2005, dated 2011):
row,SMILES,melting point
1,"COc1ccc(C(=O)c2sc(NC(=O)c3ccncc3)nc2-c2ccco2)cn1 [Compound 226, N-[4-(2-Furyl)-5-(2-methoxypyridin-5-ylcarbonyl)thiazol-2-yl]pyridine-4-carboxamide]",246 to 257 °C (dec.)
2,"Cc1cccc(C(=O)c2sc(NC(=O)c3ccncc3)nc2-c2ccco2)n1 [Compound 192, N-[4-(2-Furyl)-5-(6-methylpyridin-2-ylcarbonyl)thiazol-2-yl]pyridine-4-carboxamide]",238 to 241 °C
3,"Cc1cnc(C(=O)c2sc(NC(=O)c3ccncc3)nc2-c2ccco2)s1 [Compound 256, N-[4-(2-Furyl)-5-(5-methylthiazol-2-ylcarbonyl)thiazol-2-yl]pyridine-4-carboxamide]",275 to 277 °C (dec.)
4,"Cc1cc(C(=O)Nc2nc(-c3ccco3)c(C(=O)c3ccnc(C)c3)s2)ccn1 [Compound 240, N-[4-(2-Furyl)-5-(2-methylpyridin-4-ylcarbonyl)thiazol-2-yl]-2-methylpyridine-4-carboxamide]",205 to 229 °C
5,"O=C(Nc1nc(-c2ccco2)c(C(=O)c2ccccn2)s1)OC(CF)CF [Compound 163, 2-Fluoro-1-(fluoromethyl)ethyl N-[4-(2-furyl)-5-(pyridin-2-ylcarbonyl)thiazol-2-yl]carbamate]",158 to 159 °C
6,"Cn1ccc(-c2sc(NC(=O)c3ccncc3)nc2-c2ccco2)cc1=O [Compound 37, N-[4-(2-Furyl)-5-(1-methyl-2-oxo-1,2-dihydropyridin-4-yl)thiazol-2-yl]pyridine-4-carboxamide]",280 to 282 °C
7,"O=C(Nc1nc(-c2ccco2)c(C(=O)c2ccccn2)s1)c1ccnc(N2CCCCC2)c1 [Compound 126, N-[4-(2-Furyl)-5-(pyridin-2-ylcarbonyl)thiazol-2-yl]-2-piperidinopyridine-4-carboxamide]",136 to 141 °C
8,"O=C(CN1CCC2(CC1)OCCO2)Nc1nc(-c2ccco2)c(C(=O)c2ccccn2)s1 [Compound 177, 2-(1,4-Dioxa-8-azaspiro[4.5]decan-8-yl)-N-[4-(2-furyl)-5-(pyridin-2-ylcarbonyl)thiazol-2-yl]acetamide]",188 to 204 °C
9,"CC(=O)Nc1nc(-c2ccco2)c(C(=O)c2ccccn2)s1 [Compound 96, N-[4-(2-Furyl)-5-(pyridin-2-ylcarbonyl)thiazol-2-yl]-acetamide]",216 to 217 °C
10,"Cc1ccc(C(=O)c2sc(NC(=O)c3ccncc3)nc2-c2ccco2)nc1 [Compound 202, N-[4-(2-Furyl)-5-(5-methylpyridin-2-ylcarbonyl)thiazol-2-yl]pyridine-4-carboxamide]",255 to 257 °C
11,"Cn1nnc2ccc(C(=O)Nc3nc(-c4ccco4)c(C(=O)c4ccccn4)s3)cc21 [Compound 153, N-[4-(2-Furyl)-5-(pyridin-2-ylcarbonyl)thiazol-2-yl]-1-methyl-1H-benzotriazole-6-carboxamide]",230 to 231 °C
12,"O=C(c1ccccn1)c1sc(NC(=O)C2COc3ccccc3O2)nc1-c1ccco1 (stereo not drawn) [Compound 119, N-[4-(2-Furyl)-5-(pyridin-2-ylcarbonyl)thiazol-2-yl]-1,4-benzodioxane-2-carboxamide]",103 to 104 °C
13,"O=C(Nc1nc(-c2ccco2)c(C(=O)c2ccoc2)s1)c1ccncc1 [Compound 253, N-[4-(Furan-2-yl)-5-(furan-3-ylcarbonyl)thiazol-2-yl]pyridine-4-carboxamide]",217 to 231 °C
14,"COc1cccc(C(=O)Nc2nc(-c3ccco3)c(C(=O)c3ccccn3)s2)c1 [Compound 109, N-[4-(2-Furyl)-5-(pyridin-2-ylcarbonyl)thiazol-2-yl]-3-methoxybenzamide]",165 to 166 °C

# Other lines, results leading:
row,melting point,SMILES
1,197 to 201 °C,"Cc1cccc(C(=O)Nc2nc(-c3ccco3)c(C(=O)C3CCOCC3)s2)c1 [Compound 364, N-[4-(2-Furyl)-5-(tetrahydropyran-4-ylcarbonyl)thiazol-2-yl]-3-methylbenzamide]"
2,178 to 182 °C,"CC(C)C(=O)c1sc(NC(=O)C2CC2)nc1-c1ccco1 [Compound 301, N-[4-(2-Furyl)-5-isobutyrylthiazol-2-yl]cyclopropanecarboxamide]"
3,295 to 296 °C,"CCn1cc(C(=O)c2sc(NC(=O)c3ccncc3)nc2-c2ccco2)ccc1=O [Compound 269, N-[5-(1-Ethyl-2-oxo-1,2-dihydropyridin-5-ylcarbonyl)-4-(2-furyl)thiazol-2-yl]pyridine-4-carboxamide]"
4,210 to 212 °C,"O=C(Nc1nc(-c2ccco2)c(C(=O)C2CCOCC2)s1)c1cccc(Cl)c1 [Compound 375, 3-Chloro-N-[4-(2-furyl)-5-(tetrahydropyran-4-ylcarbonyl)-thiazol-2-yl]benzamide]"
5,238 to 240 °C,"Cc1ncc(C(=O)Nc2nc(-c3ccco3)c(C(=O)C3CCSCC3)s2)cn1 [Compound 494, N-[4-(2-Furyl)-5-(tetrahydrothiopyran-4-ylcarbonyl)thiazol-2-yl]-2-methylpyrimidine-5-carboxamide]"
6,194 to 195 °C,"O=C(Nc1nc(-c2ccco2)c(C(=O)C2CCOCC2)s1)c1ccc(CN2CCC(O)CC2)cc1 [Compound 386, N-[4-(2-Furyl)-5-(tetrahydropyran-4-ylcarbonyl)thiazol-2-yl]-4-(4-hydroxypiperidinomethyl)benzamide]"
7,133 to 134 °C,"CC(C)(C)C(=O)c1sc(NC(=O)C2CC2)nc1-c1ccco1 [Compound 307, N-[4-(2-Furyl)-5-pivaloylthiazol-2-yl]cyclopropanecarboxamide]"
8,185 to 186 °C,"O=C(Nc1nc(-c2ccco2)c(C(=O)C2CCOCC2)s1)c1ccnc(Cl)c1 [Compound 404, 2-Chloro-N-[4-(2-furyl)-5-(tetrahydropyran-4-ylcarbonyl)-thiazol-2-yl]pyridine-4-carboxamide]"
9,232 to 235 °C,"O=C1CCC(C(=O)c2sc(NC(=O)c3ccco3)nc2-c2ccco2)CC1 [Compound 355, N-[4-(2-Furyl)-5-(4-oxocyclohexylcarbonyl)thiazol-2-yl]-furan-2-carboxamide]"
10,94 to 96 °C,"CN1CCCN(CC(=O)Nc2nc(-c3ccco3)c(C(=O)C3CCOCC3)s2)CC1 [Compound 481, N-[4-(2-Furyl)-5-(tetrahydropyran-4-ylcarbonyl)thiazol-2-yl]-2-(4-methyl-1,4-diazepan-1-yl)acetamide]"
11,259 to 265 °C,"O=C(Nc1nc(-c2ccco2)c(C(=O)C2CCOCC2)s1)c1cc(F)cc(F)c1 [Compound 399, 3,5-Difluoro-N-[4-(2-furyl)-5-(tetrahydropyran-4-ylcarbonyl)thiazol-2-yl]benzamide]"
12,186 to 187 °C,"O=C(CN1CCC2(CC1)OCCO2)Nc1nc(-c2ccco2)c(C(=O)C2CCOCC2)s1 [Compound 459, 2-(1,4-Dioxa-8-azaspiro[4.5]decan-8-yl)-N-[4-(2-furyl)-5-(tetrahydropyran-4-ylcarbonyl)thiazol-2-yl]acetamide]"
13,177 to 180 °C,"O=C(Nc1nc(-c2ccco2)c(C(=O)C2CCOCC2)s1)c1ccc(OC(F)(F)F)cc1 [Compound 382, N-[4-(2-Furyl)-5-(tetrahydropyran-4-ylcarbonyl)thiazol-2-yl]-4-(trifluoromethoxy)benzamide]"
